Experimental data reported in patent US10253071B2, “Selectin inhibitors, composition, and uses related thereto” (Beth Israel Deaconess Medical Center, Inc., priority 2014, dated 2019).
Square brackets hold non-standard residues; d marks the D form. Peptide text beside a SMILES is read from it. * marks the point of attachment. X1 = CC(=O)N[C@@H]1[C@@H](O[C@@H]2O[C@H](CO)[C@H](O)[C@H](O)[C@H]2O)[C@@H](O)[C@@H](CO[C@@H]2O[C@H](CO)[C@@H](O[C@@H]3O[C@H](CO)[C@H](O)[C@H](O[C@]4(C(=O)O)C[C@H](O)[C@@H](NC(C)=O)[C@H]([C@H](O)[C@H](O)CO)O4)[C@H]3O)[C@H](O[C@@H]3O[C@@H](C)[C@@H](O)[C@@H](O)[C@@H]3O)[C@H]2NC(C)=O)O[C@@H]1*; Phe(4-CH2SO3H) = N[C@@H](Cc1ccc(CS(=O)(=O)O)cc1)C(=O)O; Mca = COc1ccc2c(CC(=O)*)cc(=O)oc2c1

Columns and labels:
[1] = biological target: T1, Recombinant mouse P-selectin Fc chimera (Mus musculus, UniProt Q01102); test: Flow cytometry, inhibition of mouse P-selectin Fc chimera binding to murine neutrophils; assay type: cell-based; details: murine PMN; chimera 2 μg/mL; read-out: IC50, P-selectin dependent interactions, murine PMN
T1 sequence (Q01102 42-768): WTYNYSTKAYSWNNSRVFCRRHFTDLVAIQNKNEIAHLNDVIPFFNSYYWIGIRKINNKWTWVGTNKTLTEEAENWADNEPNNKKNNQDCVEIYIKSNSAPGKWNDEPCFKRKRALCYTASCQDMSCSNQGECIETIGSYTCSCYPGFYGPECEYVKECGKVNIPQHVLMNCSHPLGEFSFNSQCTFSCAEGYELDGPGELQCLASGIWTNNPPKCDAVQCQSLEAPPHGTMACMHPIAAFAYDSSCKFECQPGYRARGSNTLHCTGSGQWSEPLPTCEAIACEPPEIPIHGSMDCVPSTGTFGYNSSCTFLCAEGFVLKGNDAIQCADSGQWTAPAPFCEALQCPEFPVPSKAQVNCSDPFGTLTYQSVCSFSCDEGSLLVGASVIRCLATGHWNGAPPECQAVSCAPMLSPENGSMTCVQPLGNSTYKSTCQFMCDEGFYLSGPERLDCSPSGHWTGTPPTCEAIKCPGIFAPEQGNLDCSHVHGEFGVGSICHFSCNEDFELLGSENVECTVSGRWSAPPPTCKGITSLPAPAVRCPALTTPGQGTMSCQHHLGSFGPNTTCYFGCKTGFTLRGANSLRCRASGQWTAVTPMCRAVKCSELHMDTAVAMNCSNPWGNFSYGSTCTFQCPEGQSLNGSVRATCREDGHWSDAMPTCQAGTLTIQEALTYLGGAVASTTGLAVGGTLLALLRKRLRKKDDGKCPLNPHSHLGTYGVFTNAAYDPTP
Protocol: Flow cytometry was used to characterize the ability of GSnP-6 to block binding of selectin-IgG chimeras to murine and human leukocytes. Recombinant mouse P- or L-selectin Fc chimera (2 μg/mL) was incubated with murine neutrophils and GSnP-6 (0-30 μM). Likewise, recombinant human P-selectin or L-selectin Fc chimera were incubated with human peripheral blood neutrophils and monocytes, as well as the human U937 cell line in the presence of GSnP-6 (0-30 μM). Binding of selectin-IgG chimeras was detected with PE-conjugated anti-IgG antibody, quantified as mean fluorescent intensity, and plotted as percent inhibition. Specificity was confirmed with selectin-specific blocking antibodies.

human P-selectin = biological target: T2, human P-selectin (Homo sapiens, UniProt P16109); test: Biacore binding assay, human P-selectin
T2 sequence (P16109 42-830): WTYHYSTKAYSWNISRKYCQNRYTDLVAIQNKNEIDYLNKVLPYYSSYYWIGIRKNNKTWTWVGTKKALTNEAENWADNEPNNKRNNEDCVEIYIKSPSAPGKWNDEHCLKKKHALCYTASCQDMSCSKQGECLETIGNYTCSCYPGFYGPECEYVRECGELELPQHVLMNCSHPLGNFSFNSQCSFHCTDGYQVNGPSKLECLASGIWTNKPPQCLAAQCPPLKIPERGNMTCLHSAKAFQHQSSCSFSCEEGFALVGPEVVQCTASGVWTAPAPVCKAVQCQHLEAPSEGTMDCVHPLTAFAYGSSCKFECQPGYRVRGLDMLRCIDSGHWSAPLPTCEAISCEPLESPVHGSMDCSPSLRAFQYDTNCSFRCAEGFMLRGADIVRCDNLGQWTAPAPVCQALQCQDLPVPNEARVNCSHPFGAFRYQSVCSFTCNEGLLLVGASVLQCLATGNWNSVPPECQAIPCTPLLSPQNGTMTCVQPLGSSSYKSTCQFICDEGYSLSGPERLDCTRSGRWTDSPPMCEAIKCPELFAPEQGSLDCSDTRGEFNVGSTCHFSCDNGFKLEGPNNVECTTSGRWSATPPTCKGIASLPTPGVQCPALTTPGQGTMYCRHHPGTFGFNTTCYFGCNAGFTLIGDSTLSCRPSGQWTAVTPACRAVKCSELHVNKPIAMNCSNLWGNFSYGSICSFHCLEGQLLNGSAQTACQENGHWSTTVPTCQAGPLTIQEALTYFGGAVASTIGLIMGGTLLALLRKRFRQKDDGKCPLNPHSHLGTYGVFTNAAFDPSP
Protocol: Bound peptides were detected using Alexa-488 labeled anti-human IgG antibody (5 μg/mL). Three lectins RCA-1, AAL, and PNA were used to confirm the sequence of enzymatic steps. Monoclonal antibodies CHO131, PSG2 antibody and PL-1 were used to confirm the presence of SLex, tyrosine sulfates, and the peptide sequence, respectively. Biacore binding analysis to human P-selectin with observed rate constants for (D) GSnP-6, kon 3.1×10^5 M^−1s^−1, koff 6.9×10^3 M^−1s^−; GSn2P-6, kon6.4×10^5 M^−1s^−1, koff 6.8×10^3 M^−1s. Biacore binding analysis to mouse P-selectin with observed rate constants for (E) GsnP-6, kon 4.9×10^4 M^−1s^−1, koff 8.0×10^3 M^−1s^−; GSn2P-6 kon 5.3×10^4 M^−1s^−1, koff 9.0×10^3 M^−1s. (F) Temperature- and pH-dependent stability studies of GSnP-6.
(§1) Dissociation constants (Kd) were determined using a Biacore binding assay after initial capture of biotinylated GS(n)P-6 onto streptavidin-coated sensor chips followed by flow through of P-, L- or E-sel-Ig (2.5 to 60 μg/mL). […] The Kd of GSnP-6 to murine P-selectin was ˜9-fold lower than to human P-selectin.

L-selectin (L-sel-Ig) = biological target: T3, L-selectin (L-sel-Ig) (Homo sapiens, UniProt P14151); test: Biacore binding assay, L-selectin; details: compared with P-selectin
T3 sequence (P14151 39-372): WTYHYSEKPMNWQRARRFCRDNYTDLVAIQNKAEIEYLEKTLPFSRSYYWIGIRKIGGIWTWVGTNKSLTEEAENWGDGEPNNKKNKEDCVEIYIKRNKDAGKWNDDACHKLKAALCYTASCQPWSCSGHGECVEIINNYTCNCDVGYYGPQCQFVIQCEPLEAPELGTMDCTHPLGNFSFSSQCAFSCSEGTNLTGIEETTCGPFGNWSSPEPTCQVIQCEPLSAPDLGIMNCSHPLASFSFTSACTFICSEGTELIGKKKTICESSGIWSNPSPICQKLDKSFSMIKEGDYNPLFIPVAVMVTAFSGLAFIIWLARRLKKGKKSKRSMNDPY
Protocol: as §1

**Q.** With `COc1ccc2c(CC(=O)NCCCC[C@H](N)C(=O)N[C@@H](CCC(=O)O)C(=O)N[C@@H](Cc3ccc(CS(=O)(=O)O)cc3)C(=O)N[C@@H](CCC(=O)O)C(=O)N[C@@H](Cc3ccc(CS(=O)(=O)O)cc3)C(=O)N[C@@H](CC(C)C)C(=O)N[C@@H](CC(=O)O)C(=O)N[C@@H](Cc3ccc(CS(=O)(=O)O)cc3)C(=O)N[C@@H](CC(=O)O)C(=O)N[C@@H](Cc3ccccc3)C(=O)N[C@@H](CC(C)C)C(=O)N3CCC[C@H]3C(=O)N[C@@H](CCC(=O)O)C(=O)N[C@H](C(=O)N[C@@H](CCC(=O)O)C(=O)N3CCC[C@H]3C(=O)N[C@@H](CC(C)C)C(=O)O)[C@@H](C)O[C@H]3O[C@H](CO[C@@H]4O[C@H](CO)[C@@H](O[C@@H]5O[C@H](CO)[C@H](O)[C@H](O[C@]6(C(=O)O)C[C@H](O)[C@@H](NC(C)=O)[C@H]([C@H](O)[C@H](O)CO)O6)[C@H]5O)[C@H](O[C@@H]5O[C@@H](C)[C@@H](O)[C@@H](O)[C@@H]5O)[C@H]4NC(C)=O)[C@H](O)[C@H](O[C@@H]4O[C@H](CO)[C@H](O)[C@H](O)[C@H]4O)[C@H]3NC(C)=O)cc(=O)oc2c1` [GSnP-6] (H-K(Mca)E[Phe(4-CH2SO3H)]E[Phe(4-CH2SO3H)]LD[Phe(4-CH2SO3H)]DFLPET(X1)EPL-OH) as the molecule, how does the IC50 [1] read?
**A.** ~15 µM

**Q.** What about the koff (human P-selectin; Biacore observed rate constant) of the same molecule?
**A.** 0.0069 s⁻¹

**Q.** And the kon (human P-selectin; Biacore observed rate constant)?
**A.** 310000 M⁻¹ s⁻¹

**Q.** What about the Kd (human P-selectin; biotinylated GS(n)P-6 captured on streptavidin chip, P-sel-Ig 2.5 to 60 μg/mL, read-out: Dissociation constant (Kd) to human P-selectin) of the same molecule?
**A.** 0.022 µM

**Q.** And the “apparent affinity to L-selectin” value (L-selectin (L-sel-Ig))?
**A.** even lower apparent affinity
